We go through 23 compounds from PubChem BioAssay AID330 (DTP/NCI, 2004).

For the assay, the system named is P388 leukemia ip, CD2F1 mice, survival T/C. Put plainly: NCI In Vivo Anticancer Drug Screen. Data for tumor model P388 Leukemia (intraperitoneal) in CD2F1 (CDF1) mice. To be noted: endpoint: median survival time, higher = longer survival. The gist of the method:
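Mice carrying the transplanted tumor received test compound or vehicle. Survival was recorded in each group, and the value is the treated-group measurement divided by that of the vehicle-treated control group.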

Where [1] appears, read: dose: 60.0 mg/kg/injection, schedule: Q01DX005 (ip), vehicle: saline with Tween-80.
Setting [2] is: dose: 120.0 mg/kg/injection, schedule: Q01DX005 (ip), vehicle: saline with Tween-80.
[3] abbreviates: dose: 240.0 mg/kg/injection, schedule: Q01DX005 (ip), vehicle: saline with Tween-80.
The mark [4] stands for this setting: dose: 100.0 mg/kg/injection, schedule: Q04DX003 (ip), vehicle: Klucel (hydroxypropylcellulose) (HPC).
Setting [5] is: dose: 200.0 mg/kg/injection, schedule: Q04DX003 (ip), vehicle: Klucel (hydroxypropylcellulose) (HPC).
[6] abbreviates: dose: 400.0 mg/kg/injection, schedule: Q04DX003 (ip), vehicle: Klucel (hydroxypropylcellulose) (HPC).
The mark [7] stands for this setting: dose: 50.0 mg/kg/injection, schedule: Q01DX009 (ip), vehicle: Klucel (hydroxypropylcellulose) (HPC).
The mark [8] stands for this setting: dose: 100.0 mg/kg/injection, schedule: Q01DX009 (ip), vehicle: Klucel (hydroxypropylcellulose) (HPC).
The mark [9] stands for this setting: dose: 200.0 mg/kg/injection, schedule: Q01DX009 (ip), vehicle: Klucel (hydroxypropylcellulose) (HPC).
The mark [10] stands for this setting: dose: 50.0 mg/kg/injection, schedule: Q01DX009 (ip), vehicle: saline with Tween-80.
Setting [11] is: dose: 100.0 mg/kg/injection, schedule: Q01DX009 (ip), vehicle: saline with Tween-80.
Where [12] appears, read: dose: 200.0 mg/kg/injection, schedule: Q01DX009 (ip), vehicle: saline with Tween-80.
[13] abbreviates: dose: 12.5 mg/kg/injection, schedule: Q04DX003 (ip), vehicle: Klucel (hydroxypropylcellulose) (HPC).
The mark [14] stands for this setting: dose: 25.0 mg/kg/injection, schedule: Q04DX003 (ip), vehicle: Klucel (hydroxypropylcellulose) (HPC).

Several values for one entry are separate records, joined by “and”; a condition that tells them apart may be missing. Identical values can stand only once. Inconclusive results and toxic doses are left out.

`Cc1cc(F)nc(F)n1`: the T/C is, setting by setting: (dose: 50.0 mg/kg/injection, schedule: Q01DX005 (ip), vehicle: saline) 98 % of control; (dose: 100.0 mg/kg/injection, schedule: Q01DX005 (ip), vehicle: saline) 98 % of control.

Take `Cc1cc2nc(CN(CCN(Cc3nc4cc(C)c(C)cc4[nH]3)Cc3nc4cc(C)c(C)cc4[nH]3)Cc3nc4cc(C)c(C)cc4[nH]3)[nH]c2cc1C`: the T/C was 106 % of control (dose: 12.5 mg/kg/injection, schedule: Q01DX001 (ip), vehicle: saline with Tween-80); 116 % of control (dose: 25.0 mg/kg/injection, schedule: Q01DX001 (ip), vehicle: saline with Tween-80); 116 % of control (dose: 50.0 mg/kg/injection, schedule: Q01DX001 (ip), vehicle: saline with Tween-80).

With `CC(C)CCC(=O)c1ccoc1`, the T/C was 103 % of control (dose: 0.46 mg/kg/injection, schedule: Q01DX005 (ip), vehicle: saline with Tween-80); 97 % of control (dose: 0.93 mg/kg/injection, schedule: Q01DX005 (ip), vehicle: saline with Tween-80); 97 % of control (dose: 1.87 mg/kg/injection, schedule: Q01DX005 (ip), vehicle: saline with Tween-80); 89 % of control (dose: 3.75 mg/kg/injection, schedule: Q01DX005 (ip), vehicle: saline with Tween-80).

With `COc1c2c(c3c(c1OC)CN(CC(c1ccccc1)c1ccccc1)CC3)CCC2`, the T/C by setting is: (dose: 100.0 mg/kg/injection, schedule: Q04DX002 (ip), vehicle: saline) 101 % of control; (dose: 200.0 mg/kg/injection, schedule: Q04DX002 (ip), vehicle: saline) 103 % of control; (dose: 400.0 mg/kg/injection, schedule: Q04DX002 (ip), vehicle: saline) 103 % of control.

Take `CCOC(=O)c1cccc([N+](=O)[O-])c1C(=O)OCCN(CC)CC`: the T/C was 100 % of control (dose: 100.0 mg/kg/injection, schedule: Q04DX002 (ip), vehicle: saline with Tween-80) and 122 % of control (dose: 200.0 mg/kg/injection, schedule: Q04DX002 (ip), vehicle: saline with Tween-80).

As to `c1ccc(-c2cc(Nc3ccc4c(c3)OCO4)c3cc(C4CCCCC4)ccc3n2)cc1`, the T/C is, setting by setting: under setting [1], 103 % of control; under setting [2], 93 % of control; under setting [3], 89 % of control.

Regarding `CCCCCCCCCC(=O)c1cc(O)c(C(=O)CCCCCCCCC)cc1O`, the T/C is 103 % of control (dose: 60.0 mg/kg/injection, schedule: Q01DX005 (ip), vehicle: Klucel (hydroxypropylcellulose) (HPC)); 104 % of control (dose: 120.0 mg/kg/injection, schedule: Q01DX005 (ip), vehicle: Klucel (hydroxypropylcellulose) (HPC)); 105 % of control (dose: 240.0 mg/kg/injection, schedule: Q01DX005 (ip), vehicle: Klucel (hydroxypropylcellulose) (HPC)).

As to `Cn1cc(F)c(=O)n(C)c1=O`, the T/C (dose: 30.0 mg/kg/injection, schedule: Q04DX002 (ip), vehicle: saline) is 96 % of control; the T/C (dose: 60.0 mg/kg/injection, schedule: Q04DX002 (ip), vehicle: saline) is 100 % of control; the T/C (dose: 120.0 mg/kg/injection, schedule: Q04DX002 (ip), vehicle: saline) was 98 % of control; the T/C (dose: 125.0 mg/kg/injection, schedule: Q04DX002 (ip), vehicle: saline) is 96 % of control; the T/C (dose: 240.0 mg/kg/injection, schedule: Q04DX002 (ip), vehicle: saline) was 99 % of control; the T/C (dose: 250.0 mg/kg/injection, schedule: Q04DX002 (ip), vehicle: saline) was 105 % of control.

As for `O=CNc1ccc(/C=C\c2ccnc3ccccc23)cc1`, the T/C is 109 % of control (dose: 3.13 mg/kg/injection, schedule: Q01DX009 (ip), vehicle: saline with Tween-80); 100 % of control (dose: 6.25 mg/kg/injection, schedule: Q01DX009 (ip), vehicle: saline with Tween-80); 100 % of control (dose: 12.5 mg/kg/injection, schedule: Q01DX009 (ip), vehicle: saline with Tween-80); 91 % of control (dose: 25.0 mg/kg/injection, schedule: Q01DX009 (ip), vehicle: saline with Tween-80).

For the compound `CCOc1ccc(-c2nc(-c3ccc(N(C)C(=O)C(Cl)Cl)cc3)cs2)cc1OCC`, the T/C is 102 % of control under setting [4], 100 % of control under setting [5] and 94 % of control under setting [6].

For the compound `Oc1cc(O)cc(/C=C/c2ccc(O)c(O)c2)c1`, the T/C (dose: 3.12 mg/kg/injection, schedule: Q01DX009 (ip), vehicle: DMSO) is 109 % of control; the T/C (dose: 6.25 mg/kg/injection, schedule: Q01DX009 (ip), vehicle: DMSO) was 114 % of control; the T/C (dose: 12.5 mg/kg/injection, schedule: Q01DX009 (ip), vehicle: DMSO) is 118 % of control; the T/C (dose: 25.0 mg/kg/injection, schedule: Q01DX009 (ip), vehicle: DMSO) was 123 % of control.

For the compound `C=CC1OCCC(C)O1` (configuration not stated), the T/C (dose: 60.0 mg/kg/injection, schedule: Q01DX005 (ip), vehicle: saline) was 99 % of control; the T/C (dose: 120.0 mg/kg/injection, schedule: Q01DX005 (ip), vehicle: saline) is 100 % of control; the T/C (dose: 240.0 mg/kg/injection, schedule: Q01DX005 (ip), vehicle: saline) is 97 % of control.

For the compound `COc1cc2c(cc1CCCc1cc(OC)c(OC)c(OC)c1)OCO2`, the T/C reads like this: under setting [1], 92 % of control; under setting [2], 89 % of control; under setting [3], 86 % of control.

Consider `CCOC(=O)C(=CNc1cc(C(F)(F)F)ccc1N1CCOCC1)C(=O)OCC`, for which the T/C reads like this: under setting [7], 97 % of control; under setting [8], 100 % of control; under setting [9], 100 % of control.

Take `Cn1c(=O)nc2n(C)c3ccccc3cc-2c1=O`: the T/C reads like this: under setting [10], 116 % of control; under setting [11], 116 % of control; under setting [12], 113 % of control.

On to `O=c1[nH]nc(SCc2c(Cl)cccc2Cl)c(=O)[nH]1`, for which the T/C (dose: 25.0 mg/kg/injection, schedule: Q01DX005 (ip), vehicle: Klucel (hydroxypropylcellulose) (HPC)) was 95 % of control; the T/C (dose: 50.0 mg/kg/injection, schedule: Q01DX005 (ip), vehicle: Klucel (hydroxypropylcellulose) (HPC)) is 93 % of control; the T/C (dose: 100.0 mg/kg/injection, schedule: Q01DX005 (ip), vehicle: Klucel (hydroxypropylcellulose) (HPC)) is 111 % of control; the T/C (dose: 200.0 mg/kg/injection, schedule: Q01DX005 (ip), vehicle: Klucel (hydroxypropylcellulose) (HPC)) is 95 % of control.

Regarding `CCOC(=O)C1(C(=O)OCC)N=C(c2ccccc2)C=C1c1ccccc1`, the T/C is, setting by setting: under setting [10], 100 % of control; under setting [11], 98 % of control; under setting [12], 94 % of control.

As for `O=C1c2ccccc2S(=O)(=O)N1CCN(CCN1C(=O)c2ccccc2S1(=O)=O)c1ccccc1`, the T/C is, setting by setting: under setting [7], 92 % of control; under setting [8], 100 % of control; under setting [9], 100 % of control.

For the compound `CCCCc1c(C(=O)OCC)oc(C(=O)OCC)c(CCCC)c1=O`, the T/C by setting is: under setting [13], 108 % of control; under setting [14], 104 % of control; (dose: 50.0 mg/kg/injection, schedule: Q04DX003 (ip), vehicle: Klucel (hydroxypropylcellulose) (HPC)) 103 % of control; under setting [4], 100 % of control; under setting [5], 104 % of control; under setting [6], 106 % of control.

As to `CC1=NN(C(=O)c2ccncc2)C(=O)C1N=Nc1ccc([N+](=O)[O-])cc1Cl` (configuration not stated), the T/C by setting is: under setting [10], 99 % of control; under setting [11], 96 % of control; under setting [12], 104 % of control.

With `C#CC(C)(C)Nc1c2ccccc2nc2ccccc12`, the T/C is 96 % of control (dose: 50.0 mg/kg/injection, schedule: Q01DX005 (ip), vehicle: saline with Tween-80); 103 % of control (dose: 100.0 mg/kg/injection, schedule: Q01DX005 (ip), vehicle: saline with Tween-80); 102 % of control (dose: 200.0 mg/kg/injection, schedule: Q01DX005 (ip), vehicle: saline with Tween-80).

Turning to `CCN(CC)CCOc1ccc(N(CCCl)CCCl)cc1`, the T/C is 117 % of control (dose: 3.13 mg/kg/injection, schedule: Q04DX003 (ip), vehicle: Klucel (hydroxypropylcellulose) (HPC)); 153 % of control and 168 % of control under setting [13]; 90 % of control under setting [14].

Consider `CCCCN1C(=O)c2ccc(N)cc2C1=O`, for which the T/C under setting [7] is 100 % of control, the T/C under setting [8] is 97 % of control and the T/C under setting [9] was 110 % of control.
